The target of one data set is T1, Human TK-1 (Homo sapiens, UniProt P04183).
T1 sequence (P04183 1-234): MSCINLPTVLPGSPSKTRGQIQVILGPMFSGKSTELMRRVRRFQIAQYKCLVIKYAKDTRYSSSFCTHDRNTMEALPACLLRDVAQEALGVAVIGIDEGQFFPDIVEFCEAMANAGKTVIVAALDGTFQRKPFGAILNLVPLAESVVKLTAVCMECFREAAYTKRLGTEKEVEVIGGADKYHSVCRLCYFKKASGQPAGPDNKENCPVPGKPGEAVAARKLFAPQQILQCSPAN
As to the kind of experiment: Thymidine kinase assay using [CH3-3H]dThd as natural substrate, TK-1. It is filed as biochemical. The following applies: for IC50: 50% inhibitory concentration for TK-catalyzed conversion of [3H]dThd to its 5'-monophosphate, 1 µM dThd, 37 °C, 30 min. Here is the method: (§1) Thymidine Kinase Assay Using [CH3-^3H]dThd as the Natural Substrate. The activity of recombinant thymidine kinase 1 (TK-1), TK-2, and herpes simplex virus-1 (HSV-1) TK, and the 50% inhibitory concentration of the test compounds, were assayed in a 50-μL reaction mixture containing 50 mM Tris/HCl, pH 8.0, 2.5 mM MgCl2, 10 mM dithiothreitol, 0.5 mM CHAPS, 3 mg/mL bovine serum albumin, 2.5 mM ATP, 1 µM [methyl-^3H]dThd, and enzyme. The samples were incubated at 37 °C for 30 min in the presence or absence of different concentrations (five-fold dilutions) of the test compounds. At this time, the enzyme reaction still proceeded linearly. Aliquots of 45 µL of the reaction mixtures were spotted on Whatman DE-81 filter paper disks (Whatman, Clifton, NJ, USA). The filters were washed three times for 5 min each in 1 mM ammonium formate, once for 1 min in water, and once for 5 min in ethanol. The radioactivity was determined by scintillation counting.

The target in another data set is T2, Human TK-2 (Homo sapiens, UniProt O00142).
T2 sequence (O00142 34-265): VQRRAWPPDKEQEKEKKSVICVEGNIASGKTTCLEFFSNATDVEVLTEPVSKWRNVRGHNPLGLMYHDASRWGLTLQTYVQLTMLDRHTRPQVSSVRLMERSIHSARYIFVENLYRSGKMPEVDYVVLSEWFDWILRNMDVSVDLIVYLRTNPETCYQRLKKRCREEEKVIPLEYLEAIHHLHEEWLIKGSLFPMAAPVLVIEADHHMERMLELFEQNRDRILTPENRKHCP
As to the kind of experiment: Thymidine kinase assay using [CH3-3H]dThd as natural substrate, TK-2. It is filed as biochemical. The following applies: for IC50: 50% inhibitory concentration for TK-catalyzed conversion of [3H]dThd to its 5'-monophosphate, 1 µM dThd, 37 °C, 30 min. The method, then:
as §1

The target of data set [1] is T3, HSV-1 TK (Human herpesvirus 1, UniProt P0DTH5). Kind of data set: Thymidine kinase assay using [CH3-3H]dThd as natural substrate, HSV-1 TK. It is filed as biochemical. The method, then: as §1
The test system of data set [2] is human embryonic lung (HEL) fibroblasts. Kind of data set: Cytotoxicity in HEL cell cultures (alteration of cell morphology). The following applies: microscopically detectable alteration of normal cell morphology.
The target in data set [3] is T3, HSV-1 TK. Kind of data set: Substrate activity for HSV-1 TK by HPLC technology. The class given is biochemical, herpes simplex virus-1. From the text: Therefore, to evaluate this last point, we performed further studies to test the suitability of these compounds to pass the usual rate-limiting first phosphorylation step. Thus, the affinity of the synthesized compounds 2a–e for the cellular and HSV-1 thymidine kinases (TKs) were investigated (Table 2). […] It was expected that this cytosine analogue might show affinity for HSV-1 TK, as the natural nucleoside (2-deoxycytidine, 2-dC) is known to be recognized by several kinases, including HSV-1 TK; however, that was apparently not the case. […] Therefore, because some of the synthesized analogues were recognized by the virus-encoded nucleoside kinase, the lack of antiherpetic activity could be attributed to the lack of further conversion of the 5′-monophosphate derivative to the 5′-triphosphate or to a low affinity, if any, of the 5′-triphosphate metabolite to the virus-encoded DNA polymerase.

Entries after “also recorded” stand apart in the source; their conditions may differ. A value given as a limit tells only on which side of the number the result lay.

T3 sequence (P0DTH5 whole entry): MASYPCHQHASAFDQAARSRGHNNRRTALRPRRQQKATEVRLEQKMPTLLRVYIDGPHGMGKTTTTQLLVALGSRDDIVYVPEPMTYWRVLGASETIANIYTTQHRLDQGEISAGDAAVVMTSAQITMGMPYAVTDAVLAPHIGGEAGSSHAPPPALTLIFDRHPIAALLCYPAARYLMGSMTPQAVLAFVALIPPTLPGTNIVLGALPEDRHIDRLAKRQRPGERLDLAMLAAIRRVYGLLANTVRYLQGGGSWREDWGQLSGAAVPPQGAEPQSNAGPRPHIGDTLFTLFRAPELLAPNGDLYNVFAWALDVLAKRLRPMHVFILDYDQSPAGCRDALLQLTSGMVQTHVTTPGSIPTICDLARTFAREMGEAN

Regarding `Cc1cn([C@H]2CC[C@@H](CO)[C@@H]3C[C@@H]32)c(=O)[nH]c1=O` [Compound 2d], on Human TK-1, the “Affinity for human TK-1 / human cellular kinases (in words)” value is “not for human TK-1” and the IC50 is over 799 µM. In addition, on Human TK-2, the IC50 is over 799 µM. In addition, on HSV-1 TK [1], the “Affinity for HSV-1 TK (in words)” value was “display affinity” and the IC50 is 208 µM.
Take `Nc1nc(O)c2ncn(COC(CO)CO)c2n1` [Ganciclovir]: in data set [2], the “Cytotoxicity, minimum cytotoxic concentration” value is listed as over 100 µM.
As for `Nc1ncnc2c1ncn2[C@H]1CC[C@@H](CO)[C@@H]2C[C@@H]21` [Compound 2a], the results for the IC50 on Human TK-1, against Human TK-2 and against HSV-1 TK [1] were over 771 µM, over 771 µM and 578 µM, respectively.
With `Nc1nc2c(ncn2COCCO)c(=O)[nH]1` [Acyclovir], the “Cytotoxicity, minimum cytotoxic concentration” value in data set [2] is listed as over 250 µM.
Turning to `Nc1nc2c(ncn2[C@H]2CC[C@@H](CO)[C@@H]3C[C@@H]32)c(=O)[nH]1` [Compound 2b], at Human TK-1, the “Affinity for human TK-1 / human cellular kinases (in words)” value is given as “not for human TK-1” and the IC50 is over 726 µM. Also, at Human TK-2, the “Affinity for mitochondrial TK-2 (in words)” value is reported as “some marginal affinity” and the IC50 is 338 µM. Also, at HSV-1 TK [1], the “Affinity for HSV-1 TK (in words)” value was “excellent affinity; also recorded: display affinity” and the IC50 is 5.81 µM. Besides, the “Substrate activity for HSV-1 TK, conversion to the monophosphate metabolite” value at HSV-1 TK [3] is “good substrate”.
With `Nc1ccn(C[C@@H](CO)OCP(=O)(O)O)c(=O)n1` [Cidofovir], the “Cytotoxicity, minimum cytotoxic concentration” value in data set [2] is given as over 250 µM.
For the compound `Nc1ccn(C2CCC(CO)C3CC32)c(=O)n1` (stereo not drawn) [Compound 2e, 4-Amino-1-[(1′S,2′S,5′R,6′R)-5′-(hydroxymethyl)bicyclo [4.1.0]hept-2′-yl]pyrimidin-2(1H)-one], the IC50 against Human TK-1, against Human TK-2 and against HSV-1 TK [1] was over 425 µM each time. Further, the “Cytotoxicity, minimum cytotoxic concentration” value in data set [2] is reported as over 100 µM. For the same compound, the “Affinity for HSV-1 TK (in words)” value on HSV-1 TK [1] was “did not display affinity”.
For `O=c1[nH]c(=O)n([C@H]2C[C@H](O)[C@@H](CO)O2)cc1/C=C/Br` [Brivudin], the “Cytotoxicity, minimum cytotoxic concentration” value in data set [2] is recorded as over 250 µM.
With `O=c1ccn([C@H]2CC[C@@H](CO)[C@@H]3C[C@@H]32)c(=O)[nH]1` [Compound 2c], the IC50 on Human TK-1, at Human TK-2 and on HSV-1 TK [1] was over 846 µM each time.

Source of the values: PMC9456008, “Enantiocontrolled Preparation of ϒ-Substituted Cyclohexenones: Synthesis and Kinase Activity Assays of Cyclopropyl-Fused Cyclohexane Nucleosides” (International Journal of Molecular Sciences, 2022).
